Measured values taken from US12060388B2, “Cell-penetrating peptides and methods of use thereof” (priority 2018, dated 2024).

How the values were obtained:
SV40 = SV40 infection of HeLa-S3 cells, flow cytometry for large T antigen; type: cell-based; settings: 14 μM, MOI of ~1, 48 h.p.i.
Description: HeLa-S3 cells were treated with 14 μM P16/16 peptide or vehicle for one hour then infected with SV40 at MOI of ˜1. Forty-eight h.p.i., cells were washed, fixed, and permeabilized with cold methanol for 30 min. Cells were stained for intracellular SV40 large T antigen with fluorophore-conjugated monoclonal antibody PAb101, followed by flow cytometry. The histograms show number of cells and […] fluorescence in the absence or presence of peptide. Traces correspond to mock-infected cells (Line C), mock-infected cells in the presence of peptides (Line D), SV40-infected cells (Line A), and SV40-infected cells in the presence of peptides (Line B).
For studies of SV40 infection, 7.5×105 HeLa-S3 in 6-well plates were incubated with peptides prior to infection. Cells were infected with a crude preparation of SV40 at MOI of ˜1 and fixed with 4% paraformaldehyde at 48 h.p.i. Samples were stained with FITC-conjugated anti-large T antigen antibody (Pab101) (Santa Cruz, pSC147 FITC), followed by flow cytometry to determine the mean fluorescent intensity of T antigen staining.

HPV16 PsV [1] = experiment: Inhibition of HPV16 PsV infection of HaCaT keratinocytes; type: cell-based; settings: 14 μM, MOI of 1, 48 h.p.i.
Description: FIG. 18A (top) depicts sequences of L2 peptides. […] Amino acid substitutions in the CPP or RBS mutant peptides are shown in orange and blue, respectively. Bottom: RBS and flanking sequences of indicated HPV L2 proteins or DMT1-II. FIG. 18B depicts an inhibitory dose-response curve for P16/16 peptide. 5×10^4 HeLa-S3 in 24-well plates were pretreated with various concentrations of P16/16 for one hour prior to infection with HPV pseudovirus (PsV) at multiplicity of infection (MOI) of 1. Peptide was left in the medium for the duration of the experiment. Cells were assessed by flow cytometry to determine the fraction of cells expressing reporter protein HcRed at 48 hours post-infection (h.p.i.). […] Forty-eight h.p.i., cells were assessed by flow cytometry to determine fraction of cells expressing reporter protein HcRed. […] HaCaT keratinocytes were infected at MOI of 1 with HPV16 PsV in the presence and absence of 14 μM P16/16, and infectivity was assessed 48 h.p.i. by flow cytometry for HcRed fluorescence. […] Successful infection by HPV16 and HPV16 PsV was assessed by quantitative reverse transcription-PCR (qRT-PCR) for expression of HPV early region and HcRed mRNA, respectively, and normalized to infection by the cognate virus in the absence of peptide. Background signal determined with non-cognate primers was <0.01%.

HPV16 PsV [2] = experiment: HPV16 PsV internalization in peptide-treated HeLa-S3 cells, anti-L1 immunofluorescence; type: cell-based; settings: 14 μM, MOI of 50, 8 or 16 h at 37° C.
Description: HeLa-S3 cells were incubated with 14 μM P16/16 or vehicle for one hour, followed by infection with HPV16 PsV at MOI of 50 at 4° C. for 2 h. Cells were washed with PBS to remove loosely-bound PsV and then shifted to 37° C. to allow virus internalization. After 8 or 16 h at 37° C., samples were fixed with 4% paraformaldehyde, permeabilized with 1% saponin, and stained with anti-L1 antibody. Cells were also stained with DAPI to visualize nuclei and examined by a Leica SP5 confocal microscope.
For the internalization experiments, 5×10^4 HeLa-S3 cells were grown on glass coverslips for 16 hours. After one-hour incubation with or without peptides, PsV at MOI of 50 were added and incubated at 4° C. for 2 hours, washed with PBS three times to remove loosely bound PsV, and shifted to 37° C.to initiate infection. As a control, cells were incubated with the solution used to dissolve peptides alone. At the indicated times post-infection, samples were fixed, permeabilized and stained with anti-L1 and AlexaFluor 488 conjugated secondary antibody. Cells were analyzed by a Leica SP5 confocal microscope.

retromer (Vps35) = target: T1, retromer (Vps35) (Homo sapiens, UniProt O75436+Q96QK1); experiment: Biotinylated peptide pull-down from HeLa S3 lysate, blot for Vps35; type: binding; settings: streptavidin pull-down
T1 construct: endogenous in cells; host or cells: HeLa S3 lysate (RIPA-MOPS buffer)
Description: For peptide pull-down experiments, N-terminal biotinylated L2 peptides (sequences shown in FIG. 2A) were purchased from ABClonal Science (Woburn, MA) at >95% purity. L2 wild-type was dissolved initially in 30% acetic acid and DMSO (˜70 μl each), and then dissolved in sterile deionized water with 0.01% sodium azide. L2-6A, L2-3R and L2-DM were initially solubilized in a small amount of DMSO (˜70-80 μl) and then dissolved in sterile deionized water with 0.01% sodium azide. Peptide stocks (5 mg/ml) were aliquoted and stored at −20° C. HeLa S3 cells plated in six-well plates were lysed at ˜80% confluency with 500 μl RIPA-MOPS buffer (20 mM morpholinepropanesulfonic acid [pH 7.0], 150 mM NaCl, 1% Nonidet P-40, 1 mM EDTA, 1% deoxycholic acid, 0.1% sodium dodecyl sulfate [SDS]) supplemented with protease inhibitors (1×HALT protease and phosphatase inhibitor cocktail (Thermo Scientific, Waltham, MA; #78443)). The lysate was centrifuged at 14,000 rpm for 20 min, and the supernatant was incubated with 10 μg of a biotinylated peptide for two h at 4° C. Fifty μl of streptavidin agarose beads slurry (Pierce, Rockford, IL; #20349) was added, and the mixture was gently rocked for 45 min at 4° C. […] Samples were analyzed by SDS-PAGE and immunoblotting with antibody recognizing Vps35 (Abcam, Cambridge, MA; ab57632).

## CC[C@H](C)[C@H](NC(=O)[C@@H](NC(=O)[C@H](Cc1ccc(O)cc1)NC(=O)[C@H](CCC(N)=O)NC(=O)[C@@H]1CCCN1C(=O)[C@H](CO)NC(=O)[C@@H](N)CS)[C@@H](C)O)C(=O)N[C@H](C(=O)N[C@@H](C)C(=O)N[C@@H](CC(=O)O)C(=O)N[C@@H](C)C(=O)NCC(=O)N[C@@H](CC(=O)O)C(=O)N[C@@H](Cc1ccccc1)C(=O)N[C@@H](Cc1ccc(O)cc1)C(=O)N[C@@H](CC(C)C)C(=O)N[C@@H](Cc1c[nH]cn1)C(=O)N1CCC[C@H]1C(=O)N[C@@H](CO)C(=O)N[C@@H](Cc1ccc(O)cc1)C(=O)N[C@@H](Cc1ccc(O)cc1)C(=O)N[C@@H](CCSC)C(=O)N[C@@H](CC(C)C)C(=O)N[C@@H](CCCNC(=N)N)C(=O)N[C@@H](CCCCN)C(=O)N[C@@H](CCCNC(=N)N)C(=O)N[C@@H](CCCNC(=N)N)C(=O)N[C@@H](CCCCN)C(=O)N[C@@H](CCCNC(=N)N)C(=O)O)[C@@H](C)CC [P16/16]
SV40
  inhibition of SV40 infection: did not inhibit
HPV16 PsV [1]
  inhibition of HPV16 PsV infection in HaCaT: inhibited infection
HPV16 PsV [2]
  virus internalization: did not inhibit virus internalization
Retromer (Vps35)
  retromer binding of L2 peptide in vitro: competent for retromer binding in vitro
